The values that follow come from publication PMC10218704, “A Novel Blood–Brain Barrier-Penetrating and Vascular-Targeting Chimeric Peptide Inhibits Glioma Angiogenesis” (International Journal of Molecular Sciences, 2023).

In one assay the test system is VEGFR-2. Details: method as in 2 sources, ref 30 = [30]; PMID 33209022; doi:10.2147/IJN.S270208; 30. Lu L. Chen H. Wang L. Zhao L. Cheng Y. Wang A. Wang F. Zhang X. A Dual Receptor Targeting- and BBB Penetrating- Peptide Functionalized Polyethyleneimine Nanocomplex for Secretory Endostatin Gene D ||| ref 19-22 = [19]; PMID 10747021; doi:10.1093/emboj/19.7.1525; 19. Binétruy-Tournaire R. Demangel C. Malavaud B. Vassy R. Rouyre S. Kraemer M. Plouët J. Derbin C. Perret G. Mazié J.C. Identification of a peptide blocking vascular endothelial growth factor (VEGF)- || [20]; PMID 16959272; doi:10.1016/j.lfs.2006.08.005; 20. Starzec A. Vassy R. Martin A. Lecouvey M. Di Benedetto M. Crépin M. Perret G.Y. Antiangiogenic and antitumor activities of peptide inhibiting the vascular endothelial growth factor binding to neur || [21]; PMID 17983687; doi:10.1016/j.peptides.2007.09.013; 21. Starzec A. Ladam P. Vassy R. Badache S. Bouchemal N. Navaza A. du Penhoat C.H. Perret G.Y. Structure-function analysis of the antiangiogenic ATWLPPR peptide inhibiting VEGF (165) binding to neurop || [22]; PMID 27693752; doi:10.1016/j.jconrel.2016.09.035; 22. Ying M. Shen Q. Zhan C. Wei X. Gao J. Xie C. Yao B. Lu W. A stabilized peptide ligand for multifunctional glioma targeted drug delivery J. Control. Release 2016 243 86 98 10.1016/j.jconrel.2016.09. As to conditions: cited from earlier work. The source says:
(§1) ATWLPPR (AT7), which was identified by a mutated phage lib ... || Intracranial delivery of therapeutic agents is primarily hindered by the BBB [24]. The intercellular tight junction caused by the BBB restricts the passive diffusion of almost all large-molecule and more than 98% of small-molecule drugs from peripheral blood circulation to the brain tissue.

A further assay relates to NRP-1. Details: method as in 2 sources, ref 30 = [30]; PMID 33209022; doi:10.2147/IJN.S270208; 30. Lu L. Chen H. Wang L. Zhao L. Cheng Y. Wang A. Wang F. Zhang X. A Dual Receptor Targeting- and BBB Penetrating- Peptide Functionalized Polyethyleneimine Nanocomplex for Secretory Endostatin Gene D ||| ref 19-22 = [19]; PMID 10747021; doi:10.1093/emboj/19.7.1525; 19. Binétruy-Tournaire R. Demangel C. Malavaud B. Vassy R. Rouyre S. Kraemer M. Plouët J. Derbin C. Perret G. Mazié J.C. Identification of a peptide blocking vascular endothelial growth factor (VEGF)- || [20]; PMID 16959272; doi:10.1016/j.lfs.2006.08.005; 20. Starzec A. Vassy R. Martin A. Lecouvey M. Di Benedetto M. Crépin M. Perret G.Y. Antiangiogenic and antitumor activities of peptide inhibiting the vascular endothelial growth factor binding to neur || [21]; PMID 17983687; doi:10.1016/j.peptides.2007.09.013; 21. Starzec A. Ladam P. Vassy R. Badache S. Bouchemal N. Navaza A. du Penhoat C.H. Perret G.Y. Structure-function analysis of the antiangiogenic ATWLPPR peptide inhibiting VEGF (165) binding to neurop || [22]; PMID 27693752; doi:10.1016/j.jconrel.2016.09.035; 22. Ying M. Shen Q. Zhan C. Wei X. Gao J. Xie C. Yao B. Lu W. A stabilized peptide ligand for multifunctional glioma targeted drug delivery J. Control. Release 2016 243 86 98 10.1016/j.jconrel.2016.09. As to conditions: cited from earlier work.
Text: as §1

The next assay has as its system HUVECs. The assay is described as follows: Annexin V-FITC/PI staining, flow cytometry (apoptosis). In kind it is cell-based, human. As to conditions: 320 μmol/L, 24 h; for induction of apoptosis: Hoechst and Annexin V-FITC/PI staining; for total apoptotic rate (Q1-UR and Q1-LR): mean ± SD, n = 3, control (7.17 ± 1.42)%. Here is the method:
HUVECs were seeded into 6-well culture plates (3 × 10^5 cells/well). […] After discarding the supernatant and washing with cold PBS, the cells were fixed in 4% paraformaldehyde and stained with Hoechst 33,258 for 10 min. Then, the cells were washed with cold PBS and observed using an inverted fluorescence microscope. HUVECs were treated with different peptides (the methods were the same as the Hoechst staining). After 24 h, cells were collected by trypsin digestion and washed with PBS. Annexin V-FITC/PI staining was conducted according to the manufacturer’s instructions for the Apoptosis Detection Kit. Briefly, 195 μL of Annexin V-FITC/PI dilution buffer was added to resuspend the cells. Then, 5 μL of Annexin V-FITC and 10 μL of PI staining solutions were added and gently mixed with the cells. After incubation at room temperature in the dark for 10 min, the apoptotic cells were detected by flow cytometry.
(In general: Flow cytometry measures light scatter and fluorescence of single cells or particles in a stream.)

Ends that are not written are not given here.

As to `CC(C)C[C@H](NC(=O)[C@H](Cc1c[nH]c2ccccc12)NC(=O)[C@@H](NC(=O)[C@H](C)NC(=O)[C@H](CS)NC(=O)[C@H](CCCNC(=N)N)NC(=O)[C@H](CCCNC(=N)N)NC(=O)[C@H](CCCNC(=N)N)NC(=O)[C@H](CCC(N)=O)NC(=O)[C@H](CCCNC(=N)N)NC(=O)[C@H](CCCNC(=N)N)NC(=O)[C@H](CCCCN)NC(=O)[C@H](CCCCN)NC(=O)[C@@H](N)CCCNC(=N)N)[C@@H](C)O)C(=O)N1CCC[C@H]1C(=O)N1CCC[C@H]1C(=O)N[C@@H](CCCNC(=N)N)C(=O)O` [TAT-AT7], the “affinity to VEGFR-2” value in the assay on VEGFR-2 (compared with TAT or AT7 alone) was “higher affinity to VEGFR-2 and NRP-1”. For the same molecule, in the assay with NRP-1 (compared with TAT or AT7 alone), the “affinity to NRP-1” value was “higher affinity to VEGFR-2 and NRP-1”. In addition, in the assay with HUVECs, the “induction of apoptosis” value is “strongly induced HUVECs’ apoptosis”; the “total apoptotic rate (Q1-UR and Q1-LR)” value stood at 29.56 ± 3.07%.
With ATWLPPR [AT7, ATWLPPR], the “binding to VEGFR-2” value in the assay on VEGFR-2 was “able to bind to VEGFR-2 and NRP-1”. The “binding to NRP-1” value in the assay on NRP-1 is “able to bind to VEGFR-2 and NRP-1”. For the same molecule, in the assay on HUVECs, the “induction of apoptosis” value is given as “no obvious effect of promoting apoptosis”; the “total apoptotic rate (Q1-UR and Q1-LR)” value is on record as 7.80 ± 1.50%.
